The record followed here is ChEMBL document CHEMBL1144215, “N-Propylnoraporphin-11-O-yl carboxylic esters as potent dopamine D(2) and serotonin 5-HT(1A) receptor dual ligands” (Bioorg Med Chem, 2008).

pKi: −log10 of the molar value. A value given as a limit tells only on which side of the number the result lay.

Experiment [1] has as its target 5-hydroxytryptamine receptor 2A (Homo sapiens, UniProt P28223). Kind of experiment: Displacement of [3H]Ketanserin from human 5HT2A receptor expressed in HEK293 cells. (Loss of bound radioactivity is the signal in a displacement assay; it reports binding, not function.)
The next experiment deals with Dopamine D1 receptor. Kind of experiment: Displacement of [3H]SCH23390 from rat dopamine D1 receptor expressed in HEK293 cells.
Experiment [2] has as its target T1, D(2) dopamine receptor (Homo sapiens, UniProt P14416). Briefly: Displacement of [3H]Spiperone from human dopamine D2 receptor expressed in HEK293 cells.
Experiment [3] concerns the target T1, D(2) dopamine receptor. Kind of experiment: Displacement of […] from human dopamine D2 receptor expressed in HEK293 cells. It counts as cell-based.

In general, pKi refers to the negative decadic logarithm of the Ki, by convention in mol/L.

5-hydroxytryptamine receptor 2A, sequence (P28223 whole entry): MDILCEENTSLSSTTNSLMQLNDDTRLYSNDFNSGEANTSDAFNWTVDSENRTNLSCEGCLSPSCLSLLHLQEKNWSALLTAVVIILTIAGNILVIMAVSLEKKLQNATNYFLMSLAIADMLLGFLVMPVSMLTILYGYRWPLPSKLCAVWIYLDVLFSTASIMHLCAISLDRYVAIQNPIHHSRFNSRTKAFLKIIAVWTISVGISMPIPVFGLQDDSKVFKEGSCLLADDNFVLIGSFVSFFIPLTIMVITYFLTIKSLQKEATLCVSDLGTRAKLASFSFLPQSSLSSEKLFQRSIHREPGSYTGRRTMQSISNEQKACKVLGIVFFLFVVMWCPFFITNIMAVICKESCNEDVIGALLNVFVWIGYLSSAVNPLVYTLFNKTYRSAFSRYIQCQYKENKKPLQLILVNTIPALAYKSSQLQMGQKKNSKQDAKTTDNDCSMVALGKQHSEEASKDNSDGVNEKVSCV
T1 sequence (P14416 whole entry): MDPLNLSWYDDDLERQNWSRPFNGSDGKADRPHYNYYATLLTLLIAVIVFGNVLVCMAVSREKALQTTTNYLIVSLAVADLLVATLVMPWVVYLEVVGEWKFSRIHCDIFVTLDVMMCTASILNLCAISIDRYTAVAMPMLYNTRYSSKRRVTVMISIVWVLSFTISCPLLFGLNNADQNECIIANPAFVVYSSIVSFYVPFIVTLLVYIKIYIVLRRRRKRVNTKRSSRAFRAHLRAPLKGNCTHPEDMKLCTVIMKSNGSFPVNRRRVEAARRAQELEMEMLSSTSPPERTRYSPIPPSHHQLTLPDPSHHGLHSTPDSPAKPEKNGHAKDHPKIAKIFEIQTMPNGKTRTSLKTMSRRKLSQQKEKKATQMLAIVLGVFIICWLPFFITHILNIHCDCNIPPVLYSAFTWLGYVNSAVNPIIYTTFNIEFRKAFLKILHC

`CCCN1CCc2cccc3c2[C@H]1Cc1cccc(OC(C)=O)c1-3`: in experiment [1], the pKi is 7.14. With `CCCCCCC(=O)Oc1cccc2c1-c1cccc3c1[C@@H](C2)N(CCC)CC3`, the pKi in experiment [1] is 7.02.

As to `CCCN1CCc2cccc3c2[C@H]1Cc1cccc(OC(=O)CNC(=O)OCc2ccccc2)c1-3`, the pKi (in experiment [1]; at Dopamine D1 receptor; on D(2) dopamine receptor [2]) was below 5.00 each time. On to `CCCN1CCc2cccc3c2[C@H]1Cc1cccc(O)c1-3`, for which, in experiment [1], the pKi is 6.94. With `CCCC(=O)Oc1cccc2c1-c1cccc3c1[C@@H](C2)N(CCC)CC3`, the values for the pKi (in experiment [1]; on Dopamine D1 receptor; on D(2) dopamine receptor [2]) were 7.25, below 5.00 and below 5.00, respectively. Turning to `CCCN1CCc2cccc3c2[C@H]1Cc1cccc(OC(=O)CC)c1-3`, the pKi in experiment [1] is 6.96. With `CCCCCC(=O)Oc1cccc2c1-c1cccc3c1[C@@H](C2)N(CCC)CC3`, the pKi is 6.96 in experiment [1], below 5.00 at Dopamine D1 receptor and below 5.00 at D(2) dopamine receptor [2]. Take `CCCCC(=O)Oc1cccc2c1-c1cccc3c1[C@@H](C2)N(CCC)CC3`: the pKi in experiment [1] is 7.04; at D(2) dopamine receptor [2] it was below 5.00.

The molecule `CCCN1CCc2cccc3c2[C@H]1Cc1cccc(OC(=O)CCCC(=O)Oc2cccc4c2-c2cccc5c2[C@@H](C4)N(CCC)CC5)c1-3` showed a pKi at D(2) dopamine receptor [3] below 5.00.
